Data as given in patent US10214510B2, “N-cycloalkyl-N-(biheterocyclylethylene)-(thio)carboxamide derivatives” (Bayer CropScience Aktiengesellschaft, priority 2015, dated 2019).

How the values were obtained:
[1] = log P by HPLC on reversed-phase column (C 18), EEC Directive 79/831 Annex V.A8; format: physicochemical; conditions: for logP: HPLC, C 18, 40° C., 0.1% aqueous formic acid and acetonitrile
Procedure: In table 1, the log P values were determined in accordance with EEC Directive 79/831 Annex V.A8 by HPLC (High Performance Liquid Chromatography) on a reversed-phase column (C 18), using the method described below: Temperature: 40° C.; Mobile phases: 0.1% aqueous formic acid and acetonitrile; linear gradient from 10% acetonitrile to 90% acetonitrile. Calibration was carried out using unbranched alkan-2-ones (comprising 3 to 16 carbon atoms) with known log P values (determination of the log P values by the retention times using linear interpolation between two successive alkanones). lambda-max-values were determined using UV-spectra from 200 nm to 400 nm and the peak values of the chromatographic signals.

Alternaria brassicae = test: In vivo preventive test on Alternaria brassicae (leaf spot on radish); conditions: for protection: dose of 100 and 500 ppm of active ingredient
Procedure: Example A: In Vivo Preventive Test on Alternaria Brassicae (Leaf Spot on Radish) Solvent: 5% by volume of Dimethyl sulfoxide • 10% by volume of Acetone Emulsifier: 1 μL of Tween® 80 per mg of active ingredient The active ingredients are made soluble and homogenized in a mixture of Dimethyl sulfoxide/Acetone//Tween® 80 and then diluted in water to the desired concentration. The young plants of radish are treated by spraying the active ingredient prepared as described above. Control plants are treated only with an aqueous solution of Acetone/Dimethyl sulfoxide/Tween® 80. After 24 hours, the plants are contaminated by spraying the leaves with an aqueous suspension of Alternaria brassicae spores. The contaminated radish plants are incubated for 6 days at 20° C. and at 100% relative humidity. The test is evaluated 6 days after the inoculation. 0% means an efficacy which corresponds to that of the control plants while an efficacy of 100% means that no disease is observed.

Puccinia recondita = test: In vivo preventive test on Puccinia recondita (brown rust on wheat)
Procedure: (§1) Example B: In Vivo Preventive Test on Puccinia Recondita (Brown Rust on Wheat) Solvent: 5% by volume of Dimethyl sulfoxide • 10% by volume of Acetone Emulsifier: 1 μL of Tween® 80 per mg of active ingredient The active ingredients are made soluble and homogenized in a mixture of Dimethyl sulfoxide/Acetone//Tween® 80 and then diluted in water to the desired concentration. The young plants of wheat are treated by spraying the active ingredient prepared as described above. Control plants are treated only with an aqueous solution of Acetone/Dimethyl sulfoxide/Tween® 80. After 24 hours, the plants are contaminated by spraying the leaves with an aqueous suspension of Puccinia recondita spores. The contaminated wheat plants are incubated for 24 hours at 20° C. and at 100% relative humidity and then for 10 days at 20° C. and at 70-80% relative humidity. The test is evaluated 11 days after the inoculation. 0% means an efficacy which corresponds to that of the control plants while an efficacy of 100% means that no disease is observed.

Uromyces appendiculatus = test: In vivo preventive test on Uromyces appendiculatus (bean rust); conditions: for Efficacy: Table F2, dose 500 ppm; for protection: dose of 500 ppm of active ingredient
Procedure: as §1, with “F:” for “B:”, “Uromyces Appendiculatus (Bean Rust)” for “Puccinia Recondita (Brown Rust on Wheat)”, “bean” for “wheat”, “Uromyces appendiculatus” for “Puccinia recondita”

[2] = dose of 500 ppm of active ingredient
[3] = dose of 100 and 500 ppm of active ingredient

SMILES	logP [1]	further results
CC(Cc1ncc(C(F)(F)F)cc1-c1ccsc1)N(C(=O)c1cn(C)nc1C(F)F)C1CC1 (stereo not drawn) [I.09]	3.67	
Cc1cscc1-c1cc(C(F)(F)F)cnc1CC(C)N(C(=O)c1cn(C)nc1C(F)F)C1CC1 (stereo not drawn) [I.10]	3.99	
Cc1cscc1-c1cc(C(F)(F)F)cnc1CC(C)N(C(=O)c1c(C(F)F)nn(C)c1F)C1CC1 (stereo not drawn) [I.07]	4.37	
CC(Cc1nc2ccc(C(F)(F)F)cn2c1-c1cccc2cccnc12)N(C(=O)c1c(C(F)F)nn(C)c1F)C1CC1 (stereo not drawn) [I.18]	2.44	
CC(Cc1ncc(C(F)(F)F)cc1CN1CCCCC1)N(C(=O)c1c(C(F)F)nn(C)c1F)C1CC1 (stereo not drawn) [I.21]	1.82	
CC(Cc1nc2ccc(C(F)(F)F)cn2c1-c1ccsc1)N(C(=O)c1ccsc1Cl)C1CC1 (stereo not drawn) [I.23]	4.44	
Cc1cc(C(=O)N(C(C)Cc2nc3ccc(C(F)(F)F)cn3c2-c2ccsc2)C2CC2)c(C)o1 (stereo not drawn) [I.24]	3.35	
CC(Cc1nc2ccc(C(F)(F)F)cn2c1-c1cccnc1)N(C(=O)c1c(C(F)F)nn(C)c1F)C1CC1 (stereo not drawn) [CMP1, N-cyclopropyl-3-(difluoromethyl)-5-fluoro-1-methyl-N-{1-[3-(pyridin-3-yl)-6-(trifluoromethyl)imidazo[1,2-a]pyridin-2-yl]propan-2-yl}-1H-pyrazole-4-carboxamide, reference compound]		Efficacy (Alternaria brassicae; Table A2, dose 100 ppm): 0%; Efficacy (Alternaria brassicae; Table A2, dose 500 ppm): 43%; protection (Alternaria brassicae): less than 50%; Efficacy (Puccinia recondita; Table B2, dose 500 ppm): 0%; protection (Puccinia recondita; [2]): no protection
CC(Cc1ncc(C(F)(F)F)cc1-c1csc2ccccc12)N(C(=O)c1c(C(F)F)nn(C)c1F)C1CC1 (stereo not drawn) [I.02]	4.72	
CC(Cc1nc2ccc(C(F)(F)F)cn2c1-c1csc2ccccc12)N(C(=O)c1c(C(F)F)nn(C)c1F)C1CC1 (stereo not drawn) [I.17]	3.57	
CC(Cc1ncc(C(F)(F)F)cc1-c1coc2ccccc12)N(C(=O)c1c(C(F)F)nn(C)c1F)C1CC1 (stereo not drawn) [I.04]	4.46	
CC(Cc1ncc(C(F)(F)F)cc1-c1ccsc1)N(C(=O)c1c(C(F)F)nn(C)c1F)C1CC1 (stereo not drawn) [I.06, N-cyclopropyl-3-(difluoromethyl)-5-fluoro-1-methyl-N-{1-[3-(3-thienyl)-5-(trifluoro-methyl)-pyridin-2-yl]propan-2-yl}-1H-pyrazole-4-carboxamide]		chromatographic logP ([1]; reversed-phase HPLC column (C 18), preparation example 1): 4.03
CC(Cc1ncc(C(F)(F)F)cc1-c1ccoc1)N(C(=O)c1c(C(F)F)nn(C)c1F)C1CC1 (stereo not drawn) [I.05]	3.76	Efficacy (Puccinia recondita; Table B3, dose 100 ppm): 93%; Efficacy (Puccinia recondita; Table B3, dose 500 ppm): 100%; protection (Puccinia recondita; [3]): at least 90%; Efficacy (Uromyces appendiculatus): 100%; protection (Uromyces appendiculatus): total protection
CC(Cc1ncc(C(F)(F)F)cc1-c1cnc2ccccc2c1)N(C(=O)c1c(C(F)F)nn(C)c1F)C1CC1 (stereo not drawn) [I.01]	3.53	
CC(Cc1ncc(C(F)(F)F)cc1-c1cnc2ccccc2c1)N(C(=S)c1c(C(F)F)nn(C)c1F)C1CC1 (stereo not drawn) [I.13]	3.99	
CC(Cc1nc2ccc(C(F)(F)F)cn2c1-c1ccoc1)N(C(=O)c1c(C(F)F)nn(C)c1F)C1CC1 (stereo not drawn) [I.16]	2.63	Efficacy (Alternaria brassicae; Table A2, dose 100 ppm): 86%; Efficacy (Alternaria brassicae; Table A2, dose 500 ppm): 86%; protection (Alternaria brassicae): at least 80%; Efficacy (Puccinia recondita; Table B2, dose 500 ppm): 78%; protection (Puccinia recondita; [2]): at least 70%
CC(Cc1ncc(C(F)(F)F)cc1-c1cccnc1)N(C(=O)c1c(C(F)F)nn(C)c1F)C1CC1 (stereo not drawn) [CMP2, N-cyclopropyl-3-(difluoromethyl)-5-fluoro-1-methyl-N-{1-[5-(trifluoromethyl)-3,3′-bipyridin-2-yl]propan-2-yl}-1H-pyrazole-4-carboxamide, reference compound]		Efficacy (Puccinia recondita; Table B3, dose 100 ppm): 38%; Efficacy (Puccinia recondita; Table B3, dose 500 ppm): 69%; protection (Puccinia recondita; [3]): less than 70%; Efficacy (Uromyces appendiculatus): 0%; protection (Uromyces appendiculatus): no protection
CC(Cc1nc2ccc(C(F)(F)F)cn2c1-c1ccsc1)N(C(=O)c1c(C(F)F)nn(C)c1F)C1CC1 (stereo not drawn) [I.15]	2.8	
Cc1nc(C(F)F)c(C(=O)N(C(C)Cc2nc3ccc(C(F)(F)F)cn3c2-c2ccsc2)C2CC2)s1 (stereo not drawn) [I.25]	3.39	
CC(Cc1ncc(C(F)(F)F)cc1-c1ccnc2cc(Cl)ccc12)N(C(=O)c1cn(C)nc1C(F)F)C1CC1 (stereo not drawn) [I.12]	3.78	
CC(Cc1ncc(C(F)(F)F)cc1-c1csc2ccccc12)N(C(=S)c1c(C(F)F)nn(C)c1F)C1CC1 (stereo not drawn) [I.14]	5.32	
CC(Cc1ncc(C(F)(F)F)cc1-c1coc2ccccc12)N(C(=O)c1cn(C)nc1C(F)F)C1CC1 (stereo not drawn) [I.11]	4.11	
CC(Cc1nc2ccc(C(F)(F)F)cn2c1-c1ccsc1)N(C(=O)c1nn(C)nc1C(F)F)C1CC1 (stereo not drawn) [I.20]	3.08	
CC(Cc1ncc(C(F)(F)F)cc1-c1ccco1)N(C(=O)c1cn(C)nc1C(F)F)C1CC1 (stereo not drawn) [I.08]	3.55	
CC(Cc1ncc(C(F)(F)F)cc1-c1ccnc2cc(Cl)ccc12)N(C(=O)c1c(C(F)F)nn(C)c1F)C1CC1 (stereo not drawn) [I.03]	4.20	
COc1ccnc(-c2c(CC(C)N(C(=O)c3c(C(F)F)nn(C)c3F)C3CC3)nc3ccc(C(F)(F)F)cn23)n1 (stereo not drawn) [I.19]	2.44	
CC(Cc1ncc(C(F)(F)F)cc1CN1CCCCC1)N(C(=O)c1cn(C)nc1C(F)F)C1CC1 (stereo not drawn) [I.22]	1.67	
